Legend:
[1] = biological target: T1, 5-hydroxytryptamine receptor 2A (Rattus norvegicus, UniProt P14842)
[2] = test system: Mus musculus; test: In vivo antipsychotic activity measured by the inhibition of apomorphine-induced climbing behavior in mice after 30 min po administration.; type: functional; conditions: 0.5 h
[3] = test system: Rattus norvegicus; test: In vivo antipsychotic activity measured by the induction of catalepsy in rats after po administration.; type: functional
[4] = test system: Rattus norvegicus; test: In vivo antipsychotic activity measured by the induction of catalepsy in rats after po administration; type: functional
[5] = biological target: T2, Adrenergic receptor alpha-2 (Rattus norvegicus, UniProt P22086+P19328+P22909); test: Binding affinity measured at the Alpha-2 adrenergic receptor by the inhibition of [3H]clonidine binding to rat cortex using unlabeled NAbitartrate for nonspecific binding.
T2 sequence (P22086 whole entry): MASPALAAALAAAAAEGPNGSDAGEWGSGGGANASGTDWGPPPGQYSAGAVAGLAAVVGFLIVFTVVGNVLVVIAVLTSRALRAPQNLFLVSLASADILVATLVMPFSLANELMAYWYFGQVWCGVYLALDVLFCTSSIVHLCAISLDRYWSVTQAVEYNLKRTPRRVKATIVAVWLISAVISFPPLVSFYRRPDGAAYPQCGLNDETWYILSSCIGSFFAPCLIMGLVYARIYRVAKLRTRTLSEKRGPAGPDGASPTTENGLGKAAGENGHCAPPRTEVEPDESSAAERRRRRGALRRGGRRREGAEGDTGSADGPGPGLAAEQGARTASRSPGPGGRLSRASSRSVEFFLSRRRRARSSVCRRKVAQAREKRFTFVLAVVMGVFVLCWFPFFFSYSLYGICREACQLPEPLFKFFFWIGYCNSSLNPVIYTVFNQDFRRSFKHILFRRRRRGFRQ
T2 sequence (P19328 whole entry): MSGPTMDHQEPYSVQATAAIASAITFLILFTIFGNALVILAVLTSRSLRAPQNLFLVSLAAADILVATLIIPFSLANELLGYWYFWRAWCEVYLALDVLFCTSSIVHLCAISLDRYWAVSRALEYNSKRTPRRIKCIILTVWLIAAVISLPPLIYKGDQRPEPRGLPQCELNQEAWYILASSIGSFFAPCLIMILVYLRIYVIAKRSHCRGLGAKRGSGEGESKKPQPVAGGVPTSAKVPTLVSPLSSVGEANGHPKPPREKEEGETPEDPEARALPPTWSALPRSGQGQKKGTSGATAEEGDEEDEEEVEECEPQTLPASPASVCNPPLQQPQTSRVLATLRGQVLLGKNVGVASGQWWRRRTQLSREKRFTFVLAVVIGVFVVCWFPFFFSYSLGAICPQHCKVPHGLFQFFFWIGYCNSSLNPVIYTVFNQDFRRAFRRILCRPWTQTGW
T2 sequence (P22909 whole entry): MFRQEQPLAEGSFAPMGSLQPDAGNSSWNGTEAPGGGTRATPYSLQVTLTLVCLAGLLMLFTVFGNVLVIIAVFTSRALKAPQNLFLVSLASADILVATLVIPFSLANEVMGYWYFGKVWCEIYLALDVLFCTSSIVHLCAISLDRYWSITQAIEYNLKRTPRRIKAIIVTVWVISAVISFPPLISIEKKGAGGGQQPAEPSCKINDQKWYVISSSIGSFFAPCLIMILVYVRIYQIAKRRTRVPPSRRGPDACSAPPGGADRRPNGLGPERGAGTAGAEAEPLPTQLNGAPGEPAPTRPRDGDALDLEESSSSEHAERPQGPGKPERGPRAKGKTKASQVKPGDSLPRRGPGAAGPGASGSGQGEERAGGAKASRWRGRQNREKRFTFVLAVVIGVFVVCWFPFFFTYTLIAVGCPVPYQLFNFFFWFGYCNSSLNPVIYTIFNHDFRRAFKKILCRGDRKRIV

[6] = biological target: T3, D(4) dopamine receptor (Homo sapiens, UniProt P21917); test: biochemical
T3 sequence (P21917 whole entry): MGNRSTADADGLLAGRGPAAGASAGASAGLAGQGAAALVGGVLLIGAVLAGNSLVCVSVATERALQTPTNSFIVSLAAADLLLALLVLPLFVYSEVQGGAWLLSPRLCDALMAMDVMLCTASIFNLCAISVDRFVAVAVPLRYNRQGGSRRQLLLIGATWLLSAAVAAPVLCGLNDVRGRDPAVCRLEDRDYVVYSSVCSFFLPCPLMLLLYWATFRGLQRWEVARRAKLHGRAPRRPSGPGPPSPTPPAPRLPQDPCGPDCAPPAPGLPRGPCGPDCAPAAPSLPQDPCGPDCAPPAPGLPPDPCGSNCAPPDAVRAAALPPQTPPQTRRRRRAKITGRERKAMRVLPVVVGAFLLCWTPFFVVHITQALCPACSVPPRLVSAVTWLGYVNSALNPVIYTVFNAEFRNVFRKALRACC

[7] = biological target: D(1A) dopamine receptor (Rattus norvegicus, UniProt P18901); test: biochemical
Description: Binding affinity measured at the Dopamine receptor D1 by the inhibition of [3H]SCH-23390 binding to rat striatum using unlabeled apomorphine for nonspecific binding.

[8] = biological target: T4, Alpha-1A adrenergic receptor (Rattus norvegicus, UniProt P43140)
T4 sequence (P43140 whole entry): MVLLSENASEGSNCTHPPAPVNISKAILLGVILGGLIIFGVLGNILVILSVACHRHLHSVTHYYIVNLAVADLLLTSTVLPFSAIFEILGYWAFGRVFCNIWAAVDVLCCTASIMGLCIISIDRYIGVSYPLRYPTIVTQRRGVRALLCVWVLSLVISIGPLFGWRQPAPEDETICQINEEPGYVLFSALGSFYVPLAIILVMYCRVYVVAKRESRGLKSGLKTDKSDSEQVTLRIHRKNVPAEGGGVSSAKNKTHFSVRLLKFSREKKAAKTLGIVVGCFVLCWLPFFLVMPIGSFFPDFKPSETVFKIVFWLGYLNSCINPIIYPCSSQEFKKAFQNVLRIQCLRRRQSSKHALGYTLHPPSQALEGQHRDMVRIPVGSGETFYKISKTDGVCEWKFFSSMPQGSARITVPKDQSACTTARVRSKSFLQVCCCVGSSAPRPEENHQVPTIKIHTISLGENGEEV
Description: Binding affinity measured at the Alpha-1A adrenergic receptor by the inhibition of [3H]prazosin binding to rat cortex using unlabeled WB-4101 for nonspecific binding.

[9] = organism: Mus musculus; test: Inhibition of p-chloroamphetamine-induced hyperactivity in mice.; type: functional
[10] = biological target: T5, 5-hydroxytryptamine receptor 1A (Rattus norvegicus, UniProt P19327); test: Binding affinity measured at the 5-hydroxytryptamine 1A receptor by the inhibition of [3H]8-OH-DPAT binding to rat cortex using unlabeled buspirone for nonspecific binding.
T5 sequence (P19327 whole entry): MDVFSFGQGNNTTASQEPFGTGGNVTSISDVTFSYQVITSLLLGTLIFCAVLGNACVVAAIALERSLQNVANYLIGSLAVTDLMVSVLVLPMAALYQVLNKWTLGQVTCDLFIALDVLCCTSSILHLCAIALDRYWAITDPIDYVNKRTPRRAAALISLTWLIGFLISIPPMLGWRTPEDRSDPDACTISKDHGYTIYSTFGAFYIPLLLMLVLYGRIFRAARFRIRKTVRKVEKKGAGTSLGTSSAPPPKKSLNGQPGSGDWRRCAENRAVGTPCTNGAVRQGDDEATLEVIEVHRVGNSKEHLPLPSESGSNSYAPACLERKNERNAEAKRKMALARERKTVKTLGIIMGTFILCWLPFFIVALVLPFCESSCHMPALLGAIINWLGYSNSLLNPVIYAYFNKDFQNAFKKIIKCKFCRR

[11] = biological target: D(3) dopamine receptor (Homo sapiens, UniProt P35462); test: Binding affinity measured at the Dopamine receptor D3 by the inhibition of [3H]YM-09151-2 binding to human recombinant CCL 1.3 cells using unlabeled 7-OH-DPAT for nonspecific binding.
[12] = biological target: Adrenergic receptor beta (Rattus norvegicus, UniProt P18090+P10608+P26255); test: Binding affinity measured at the Beta adrenergic receptor by the inhibition of [3H]DHA binding to rat cortex using unlabeled isoprenalin for nonspecific binding.
[13] = biological target: Muscarinic acetylcholine receptor; test: Binding affinity measured at the Muscarinic acetylcholine receptor by the inhibition of [3H]-pyrilamine binding to guinea pig cerebellum using unlabeled Triprolidine for nonspecific binding.; type: tissue-based, Cavia porcellus
[14] = organism: Mus musculus; test: Inhibition of grooming-induced by SKF 38393 in mice.; type: functional
[15] = organism: Rattus norvegicus; test: Inhibition of apomorphine-induced stereotypy in rats.; type: functional
[16] = organism: Mus musculus; test: Inhibition of head twitches-induced by 2,5-dimethoxy-4-iodoamphetamine in mice.; type: functional
[17] = biological target: T1, 5-hydroxytryptamine receptor 2A; remark: listed apart in the source
Description: Binding affinity measured at the 5-hydroxytryptamine 2A receptor by the inhibition of [3H]ketanserin binding to rat cortex using unlabeled mianserin for nonspecific binding.

[18] = biological target: Beta-1 adrenergic receptor (Rattus norvegicus, UniProt P18090); test: Binding affinity measured at the Beta-1 adrenergic receptor by the inhibition of [3H]DHA binding to rat cortex using unlabeled isoprenalin for nonspecific binding.
Beta-1 adrenergic receptor, sequence (P18090 whole entry): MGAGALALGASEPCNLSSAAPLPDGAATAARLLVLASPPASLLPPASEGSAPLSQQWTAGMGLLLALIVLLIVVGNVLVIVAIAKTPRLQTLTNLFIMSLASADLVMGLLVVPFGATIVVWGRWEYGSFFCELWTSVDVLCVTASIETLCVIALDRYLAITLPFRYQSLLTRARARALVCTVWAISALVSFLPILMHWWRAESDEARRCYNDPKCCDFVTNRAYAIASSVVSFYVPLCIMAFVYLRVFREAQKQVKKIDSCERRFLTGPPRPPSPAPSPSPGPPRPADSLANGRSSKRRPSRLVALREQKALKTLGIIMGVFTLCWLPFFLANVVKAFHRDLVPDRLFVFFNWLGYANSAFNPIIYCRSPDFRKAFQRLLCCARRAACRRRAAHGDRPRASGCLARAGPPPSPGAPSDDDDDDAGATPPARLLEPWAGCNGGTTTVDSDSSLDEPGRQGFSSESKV

T1 sequence (P14842 whole entry): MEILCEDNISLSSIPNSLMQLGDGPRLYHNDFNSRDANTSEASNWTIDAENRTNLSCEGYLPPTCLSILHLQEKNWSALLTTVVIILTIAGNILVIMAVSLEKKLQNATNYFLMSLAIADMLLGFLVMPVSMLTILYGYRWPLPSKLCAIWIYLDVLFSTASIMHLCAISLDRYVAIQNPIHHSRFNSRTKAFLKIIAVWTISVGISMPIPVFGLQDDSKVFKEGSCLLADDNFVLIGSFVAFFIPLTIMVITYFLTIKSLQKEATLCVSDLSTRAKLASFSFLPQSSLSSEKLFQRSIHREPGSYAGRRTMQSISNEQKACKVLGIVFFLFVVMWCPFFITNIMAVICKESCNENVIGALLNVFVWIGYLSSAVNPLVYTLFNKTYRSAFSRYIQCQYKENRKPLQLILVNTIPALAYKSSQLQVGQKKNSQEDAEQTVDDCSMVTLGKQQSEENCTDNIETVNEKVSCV
D(1A) dopamine receptor, sequence (P18901 whole entry): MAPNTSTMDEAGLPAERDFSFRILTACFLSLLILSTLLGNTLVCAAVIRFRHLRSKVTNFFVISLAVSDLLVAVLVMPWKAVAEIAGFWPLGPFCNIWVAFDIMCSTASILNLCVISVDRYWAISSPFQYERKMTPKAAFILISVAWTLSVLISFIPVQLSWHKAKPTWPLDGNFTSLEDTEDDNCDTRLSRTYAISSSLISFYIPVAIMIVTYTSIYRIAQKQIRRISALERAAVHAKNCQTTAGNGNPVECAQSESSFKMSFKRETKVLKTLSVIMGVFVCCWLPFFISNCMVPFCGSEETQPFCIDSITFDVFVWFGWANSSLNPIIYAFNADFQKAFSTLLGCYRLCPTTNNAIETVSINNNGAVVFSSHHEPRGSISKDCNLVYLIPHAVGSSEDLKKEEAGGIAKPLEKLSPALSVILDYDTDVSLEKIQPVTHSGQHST
D(3) dopamine receptor, sequence (P35462 whole entry): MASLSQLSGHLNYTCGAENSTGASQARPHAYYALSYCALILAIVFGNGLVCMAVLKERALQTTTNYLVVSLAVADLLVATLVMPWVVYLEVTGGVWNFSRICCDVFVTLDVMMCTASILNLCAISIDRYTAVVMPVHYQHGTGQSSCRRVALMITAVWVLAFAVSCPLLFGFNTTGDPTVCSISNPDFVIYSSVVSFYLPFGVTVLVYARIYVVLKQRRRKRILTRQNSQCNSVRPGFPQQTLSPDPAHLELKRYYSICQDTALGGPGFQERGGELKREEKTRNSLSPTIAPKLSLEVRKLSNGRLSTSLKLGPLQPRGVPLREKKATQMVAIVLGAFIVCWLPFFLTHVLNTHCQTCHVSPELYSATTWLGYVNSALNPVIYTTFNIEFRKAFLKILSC

Row | Compound | IC50 [1] | ED50 [2] | ED50 [3] | ED50 [9] | ED50 [14] | further results
1 | Cc1coc2cc(OCCCN3CCC(C(=O)c4ccc(F)cc4)CC3)ccc2c1=O | 25.3 nM |  |  |  |  | 
2 | O=C(c1ccc(F)cc1)C1CCN(CCCOc2ccc3c(=O)c(CO)coc3c2)CC1 | 32.9 nM | 2.02 mg/kg | 13 mg/kg |  |  | 
3 | O=Cc1coc2cc(OCCCN3CCC(c4noc5cc(F)ccc45)CC3)ccc2c1=O |  | 3.32 mg/kg |  |  |  | ED50 [4]: 15.9 mg/kg
4 | COCc1coc2cc(OCCCN3CCC(c4noc5cc(F)ccc45)CC3)ccc2c1=O | 1.4 nM | 0.27 mg/kg | 6.88 mg/kg |  |  | 
5 | Cc1coc2cc(OCCCN3CCC(c4noc5cc(F)ccc45)CC3)ccc2c1=O |  | 0.4 mg/kg | 2.85 mg/kg |  |  | 
6 | O=c1cc(CO)oc2cc(OCCCN3CCC(c4noc5cc(F)ccc45)CC3)ccc12 | 7.2 nM | 5.88 mg/kg | > 100 mg/kg |  |  | 
7 | O=C(O)c1coc2cc(OCCCN3CCC(c4noc5cc(F)ccc45)CC3)ccc2c1=O |  | > 10 mg/kg | > 50 mg/kg |  |  | 
8 | O=c1ccoc2cc(OCCCN3CCC(c4noc5cc(F)ccc45)CC3)ccc12 | 8.6 nM | 1.08 mg/kg | 12.6 mg/kg |  |  | 
9 | O=c1c(CO)coc2cc(OCCCN3CCC(c4noc5cc(F)ccc45)CC3)ccc12 [ABAPERIDONE] | 6.2 nM | 0.24 mg/kg | 8.48 mg/kg | 0.16 mg/kg | 0.31 mg/kg | Ki [5]: 169 nM; Ki [6]: 179 nM; Ki [7]: 239 nM; Ki [8]: 2.4 nM; Ki [10]: 94 nM; Ki [11]: 5.4 nM; Ki [12]: 2990 nM; Ki [13]: 1130 nM; ED50 [15]: 18.6 mg/kg; ED50 [16]: 0.08 mg/kg; Ki [17]: 1.9 nM
10 | CN1CCN(C2=Nc3cc(Cl)ccc3Nc3ccccc32)CC1 [CLOZAPINE] |  | 15.4 mg/kg | > 100 mg/kg | 6.41 mg/kg | 0.33 mg/kg | ED50 [15]: > 100 mg/kg; ED50 [16]: 0.85 mg/kg
11 | O=C(CCCN1CCC(O)(c2ccc(Cl)cc2)CC1)c1ccc(F)cc1 [HALOPERIDOL] |  | 0.31 mg/kg | 2 mg/kg | 0.3 mg/kg | 0.28 mg/kg | ED50 [16]: 0.56 mg/kg
12 | Cc1nc2n(c(=O)c1CCN1CCC(c3noc4cc(F)ccc34)CC1)CCCC2 [RISPERIDONE] |  | 0.29 mg/kg | 5 mg/kg | 0.2 mg/kg | 0.41 mg/kg | Ki [18]: 22000 nM; ED50 [15]: 9.7 mg/kg
